These results are taken from patent publication US7109339B2, “Substituted tricyclic gamma-carbolines as serotonin receptor agonists and antagonists” (Bristol-Myers Squibb Company, priority 2002, dated 2006).

The melting point is the temperature of the solid-liquid transition. Compound `CC(C)(C)OC(=O)N1CC[C@H]2[C@@H](C1)c1cc(Br)cc(C#N)c1N2C(=O)OC(C)(C)C` displayed a melting point of 74 to 78 °C. Next, `COc1cc2c(c(C(F)(F)F)c1)N[C@H]1CCNC[C@@H]21`: 140 to 144 °C; `COc1ncc(C)cc1Nc1cc(C#N)c2c(c1)[C@@H]1CNCC[C@@H]1N2C` [Example 169, (4aS,9bR)-8-(2-methoxy-5-methyl-pyridin-3-ylamino)-5-methyl-2,3,4,4a,5,9b-hexahydro-1H-pyrido[4,3-b]indole-6-carbonitrile]: 76 to 80 °C.
